Assay results reported in article PMC3433276 (Bioorganic & medicinal chemistry letters, 2012).

Assays:
HIV-1LAI = experiment: Antiviral MTT assay in MT-2 cells exposed to HIV-1LAI; assay type: cell-based; conditions: Human immunodeficiency virus 1, MT2
[1] = tested on: panel of multidrug-resistant HIV-1 strains; experiment: microbe, parasite or virus in culture; assay type: cell-based; conditions: for fold-changes in EC50: against all MDR HIV-1 viruses compared to wild type

IC50 (HIV-1LAI) [µM]	Compound	fold-changes in EC50 [1]	EC50 ([1]; Human immunodeficiency virus 1) [µM]
0.03	CC(C)CN(C[C@@H](O)[C@H](Cc1ccccc1)NC(=O)O[C@H]1CCOC1)S(=O)(=O)c1ccc(N)cc1 [amprenavir]	–	–
–	COC(=O)N[C@@H]1CO[C@@H]2C[C@H](OC(=O)N[C@@H](Cc3ccccc3)[C@H](O)CN(CC(C)C)S(=O)(=O)c3ccc(OC)cc3)C[C@H]12 [Inhibitor 3c]	< 3	–
–	COC(=O)N[C@H]1CO[C@@H]2C[C@H](OC(=O)N[C@@H](Cc3ccccc3)[C@H](O)CN(CC(C)C)S(=O)(=O)c3ccc(OC)cc3)C[C@H]12 [Inhibitor 3d]	increased by a factor of at least three	0.015 to 0.024
